Paper PMC6268061, “Investigation of the Biological Properties of (Hetero)Aromatic Thiosemicarbazones” (Molecules, 2012)
Converted amounts (≈) assume the structure as drawn. Read-outs that look alike come from different tables or passages of the source.

Tests used:
[1] = Lipophilicity determination using RP-HPLC (capacity factor, log k); assay type: physicochemical; conditions: C18, MeOH 55%/H2O 45%
Source text: Reversed phase high performance liquid chromatography (RP-HPLC) methods have become popular and are widely used for lipophilicity measurements. The general procedure is the measurement of the directly accessible retention time under isocratic conditions using varying amounts of methanol as an organic modifier in the mobile phase using RP columns and calculating the logarithm of the capacity factors (log k). Log k is the logarithm of the capacity factors in chromatographic approaches that is related to the partitioning of a compound between a mobile and a (pseudo-)stationary phase. Log k is used as the lipophilicity index converted to log P scale.
A Waters Alliance 2695 XE HPLC separation module and a Waters Photodiode Array Detector 2996 (Waters Corp., Milford, MA, USA) were used. A Symmetry® C18 5 μm, 4.6 × 250 mm, Part No. WAT054275 (Waters Corp.) chromatographic column was used. The HPLC separation process was monitored using Empower™ 2 Chromatography Data Software, Waters 2009 (Waters Corp.). A mixture of MeOH p.a. (55%) and H2O-HPLC-Mili-Q Grade (45%) was used as a mobile phase. The total flow of the column was 0.9 mL/min, injection volume 30 μL, column temperature 30 °C and sample temperature 10 °C. A detection wavelength of 210 nm was chosen. A KI methanolic solution was used for the determination of dead time (tD). Retention times (tR) were measured in minutes. The capacity factors k were calculated using the Empower™ 2 Chromatography Data Software according to the formula k = (tR − tD)/tD, where tR is the retention time of the solute, whereas tD denotes the dead time obtained using an unretained analyte. Log k, calculated from the capacity factor k, is used as the lipophilicity index converted to log P scale.

[2] = system: Candida albicans ATCC 44859; experiment: In vitro antifungal susceptibility, broth microdilution; assay type: cell-based; conditions: read-out: MIC (IC80) CA
Candida tropicalis 156 = experiment: as above; assay type: cell-based; conditions: read-out: MIC (IC80) CT
Candida krusei ATCC 6258 = experiment: as above; assay type: cell-based; conditions: Pichia kudriavzevii, read-out: MIC (IC80) CK
Candida glabrata 20/I = experiment: as above; assay type: cell-based; conditions: Nakaseomyces glabratus, read-out: MIC (IC80) CG
[3] = system: Trichosporon beigelii 1188; experiment: as above; assay type: cell-based; conditions: read-out: MIC (IC80) TB
Source text: The broth microdilution test was used for the assessment of the in vitro antifungal activity of the synthesized compounds against Candida albicans ATCC 44859 (CA), Candida tropicalis 156 (CT), Candida krusei ATCC 6258 (CK), Candida glabrata 20/I (CG), Trichosporon beigelii 1188 (TB), Aspergillus fumigatus 231 (AF), Absidia corymbifera 272 (AC), and Trichophyton mentagrophytes 445 (TM). Fluconazole (FLU) was used as the standard since it is a clinically used antimycotic drug. The procedure was performed using a twofold dilution of the compounds in RPMI 1640 (Sevapharma a.s., Prague, Czech Republic) buffered to pH 7.0 with […] of 3-morpholino-propane-1-sulfonic acid (MOPS, Sigma, Prague, Czech Republic). The final concentrations of the compounds ranged from 500 to 0.975 μmol/L. Drug-free controls were included. The determination of minimum inhibitory concentration (MIC) was performed according to the Clinical and Laboratory Standards Institute (CLSI, formerly NCCLS) reference protocol M27-A2 for yeasts (IC80 value) and M38-A for moulds (IC50 value). IC80 and IC50 were defined as an 80% resp. 50% or greater reduction in growth in comparison with the control. The values of MICs were determined after 24 and 48 h of static incubation at 35 °C. The final MICs for T. mentagrophytes, were determined after 72 and 120 h of incubation.

[4] = system: Aspergillus fumigatus 231; experiment: as above; assay type: cell-based; conditions: read-out: MIC (IC50) AF
Absidia corymbifera 272 = experiment: as above; assay type: cell-based; conditions: read-out: MIC (IC50) AC
[5] = system: Trichophyton mentagrophytes 445; experiment: as above; assay type: cell-based; conditions: read-out: MIC (IC50) TM
[6] = system: HCT-116 human colon cancer cells (p53 wild type); parameters: method as in PMID 22858101; conditions: footnote 3: anticancer activity described elsewhere ref [34],[44]; cited from earlier work
[7] = system: photosynthetic electron transport (PET) in spinach chloroplasts; experiment: Inhibition of photosynthetic electron transport (PET) in spinach chloroplasts; assay type: biochemical, Spinacia oleracea L.; conditions: DCPIP photoreduction
Protocol: Chloroplasts were prepared from spinach (Spinacia oleracea L.) according to Masarovicova and Kralova. The inhibition of the photosynthetic electron transport (PET) in spinach chloroplasts was determined spectrophotometrically (Genesys 6, Thermo Fisher Scientific, Waltham, MA, USA) using an artificial electron acceptor 2,6-dichlorophenol-indophenol (DCIPP) according to Kralova et al. and the rate of photosynthetic electron transport was monitored as a photoreduction of DCPIP. The measurements were carried out in a phosphate buffer (0.02 mol/L, pH 7.2) containing sucrose (0.4 mol/L), MgCl2 (0.005 mol/L) and NaCl (0.015 mol/L). The chlorophyll content was 30 mg/L in these experiments and the samples were irradiated (~100 W/m^2 with 10 cm distance) with a halogen lamp (250 W) using a 4 cm water filter to prevent warming of the samples (suspension temperature 22 °C). The compounds studied were dissolved in DMSO due to their limited water solubility. […] The inhibitory efficiency of the compounds studied was expressed by IC50 values, i.e., by the molar concentration of the compounds that caused a 50% decrease in the oxygen evolution rate relative to the untreated control.

[8] = ATCC44859, 24 h and 48 h, only one value presented (inactive)
[9] = Candida tropicalis, 156, 24 h and 48 h, only one value presented (inactive)
[10] = ATCC6258, 24 h and 48 h, only one value presented (inactive)
[11] = 24 h and 48 h, only one value presented (inactive)
[12] = Trichosporon beigelii, 1188, 24 h and 48 h, only one value presented (inactive)
[13] = Aspergillus fumigatus, 231, 24 h and 48 h, only one value presented (inactive)
[14] = Lichtheimia corymbifera, 272, 24 h and 48 h, only one value presented (inactive)
[15] = Trichophyton mentagrophytes, 445, 72 h and 120 h, only one value presented (inactive)
[16] = Trichosporon beigelii, 1188, 24 h
[17] = Trichosporon beigelii, 1188, 48 h
[18] = Aspergillus fumigatus, 231, 24 h
[19] = Aspergillus fumigatus, 231, 48 h
[20] = Lichtheimia corymbifera, 272, 24 h
[21] = Lichtheimia corymbifera, 272, 48 h
[22] = Trichophyton mentagrophytes, 445, 72 h
[23] = Trichophyton mentagrophytes, 445, 120 h

CCNC(=S)N/N=C/c1cccc(Cl)c1Cl [Compound 3d, (E)-2-(2,3-Dichlorobenzylidene)-N-ethylhydrazinecarbothioamide]
log k [1]: 0.7958 | MIC [2, 8]: > 500 µM | MIC (Candida tropicalis 156; [9]): > 500 µM | MIC (Candida krusei ATCC 6258; [10]): > 500 µM | MIC (Candida glabrata 20/I; [11]): > 500 µM | MIC [3, 12]: > 500 µM | IC50 [4, 13]: > 500 µM | IC50 (Absidia corymbifera 272; [14]): > 500 µM | IC50 [5, 15]: > 500 µM | IC50 [6]: 58.5 ± 0.2 µM

CCNC(=S)N/N=C/c1ccc(Br)cc1 [Compound 3n, (E)-2-(4-Bromobenzylidene)-N-ethylhydrazinecarbothioamide]
log k [1]: 0.7568 | MIC [2, 8]: > 500 µM | MIC (Candida tropicalis 156; [9]): > 500 µM | MIC (Candida krusei ATCC 6258; [10]): > 500 µM | MIC (Candida glabrata 20/I; [11]): > 500 µM | MIC [3, 12]: > 500 µM | IC50 [4, 13]: > 500 µM | IC50 (Absidia corymbifera 272; [14]): > 500 µM | IC50 [5, 15]: > 500 µM | IC50 [6]: > 60 µM

CN(C)C(=S)NN/C=C/c1ccc2ccccc2n1 [Compound 4b, (E)-2-(Quinolin-2-ylvinyl)-N,N-dimethylhydrazinecarbothioamide]
log k [1]: 0.6184 | IC50 [7]: 1370 µM | MIC ([2]; ATCC44859, 24 h): 1.95 µM (≈ 0.531 µg/mL) | MIC ([2]; ATCC44859, 48 h): 1.95 µM (≈ 0.531 µg/mL) | MIC (Candida tropicalis 156; Candida tropicalis, 156, 24 h): 1.95 µM (≈ 0.531 µg/mL) | MIC (Candida tropicalis 156; Candida tropicalis, 156, 48 h): 7.81 µM (≈ 2.13 µg/mL) | MIC (Candida krusei ATCC 6258; ATCC6258, 24 h): 3.9 µM (≈ 1.06 µg/mL) | MIC (Candida krusei ATCC 6258; ATCC6258, 48 h): 3.9 µM (≈ 1.06 µg/mL) | MIC (Candida glabrata 20/I; 24 h): 1.95 µM (≈ 0.531 µg/mL) | MIC (Candida glabrata 20/I; 48 h): 1.95 µM (≈ 0.531 µg/mL) | MIC [3, 16]: 1.95 µM (≈ 0.531 µg/mL) | MIC [3, 17]: 1.95 µM (≈ 0.531 µg/mL) | IC50 [4, 18]: 3.9 µM | IC50 [4, 19]: 3.9 µM | IC50 (Absidia corymbifera 272; [20]): 3.9 µM | IC50 (Absidia corymbifera 272; [21]): 3.9 µM | IC50 [5, 22]: 3.9 µM | IC50 [5, 23]: 3.9 µM | IC50 [6]: 4.86 ± 1.48 µM

Oc1cccc2ccc(C=NNC(=S)Nc3ccccc3)nc12 [Compound 4h]
log k [1]: 0.7548 | MIC ([2]; ATCC44859, 24 h): > 125 µM | MIC ([2]; ATCC44859, 48 h): > 125 µM | MIC (Candida tropicalis 156; Candida tropicalis, 156, 24 h): > 125 µM | MIC (Candida tropicalis 156; Candida tropicalis, 156, 48 h): > 125 µM | MIC (Candida krusei ATCC 6258; ATCC6258, 24 h): > 125 µM | MIC (Candida krusei ATCC 6258; ATCC6258, 48 h): > 125 µM | MIC (Candida glabrata 20/I; 24 h): > 125 µM | MIC (Candida glabrata 20/I; 48 h): > 125 µM | MIC [3, 16]: > 125 µM | MIC [3, 17]: > 125 µM | IC50 [4, 18]: > 125 µM | IC50 [4, 19]: > 125 µM | IC50 (Absidia corymbifera 272; [20]): > 125 µM | IC50 (Absidia corymbifera 272; [21]): > 125 µM | IC50 [5, 22]: > 125 µM | IC50 [5, 23]: > 125 µM | IC50 [6]: 25 ± 4.29 µM

CNC(=S)NN=Cc1c(O)ccc2cccnc12 [Compound 4i]
log k [1]: 0.6193 | MIC ([2]; ATCC44859, 24 h): > 500 µM | MIC ([2]; ATCC44859, 48 h): > 500 µM | MIC (Candida tropicalis 156; Candida tropicalis, 156, 24 h): > 500 µM | MIC (Candida tropicalis 156; Candida tropicalis, 156, 48 h): > 500 µM | MIC (Candida krusei ATCC 6258; ATCC6258, 24 h): > 500 µM | MIC (Candida krusei ATCC 6258; ATCC6258, 48 h): > 500 µM | MIC (Candida glabrata 20/I; 24 h): > 500 µM | MIC (Candida glabrata 20/I; 48 h): > 500 µM | MIC [3, 16]: > 500 µM | MIC [3, 17]: > 500 µM | IC50 [4, 18]: > 500 µM | IC50 [4, 19]: > 500 µM | IC50 (Absidia corymbifera 272; [20]): > 500 µM | IC50 (Absidia corymbifera 272; [21]): > 500 µM | IC50 [5, 22]: > 500 µM | IC50 [5, 23]: > 500 µM | IC50 [6]: > 25 µM

CCNC(=S)NN=Cc1c(O)ccc2cccnc12 [Compound 4k]
log k [1]: 0.6539 | MIC ([2]; ATCC44859, 24 h): > 500 µM | MIC ([2]; ATCC44859, 48 h): > 500 µM | MIC (Candida tropicalis 156; Candida tropicalis, 156, 24 h): > 500 µM | MIC (Candida tropicalis 156; Candida tropicalis, 156, 48 h): > 500 µM | MIC (Candida krusei ATCC 6258; ATCC6258, 24 h): > 500 µM | MIC (Candida krusei ATCC 6258; ATCC6258, 48 h): > 500 µM | MIC (Candida glabrata 20/I; 24 h): 62.5 µM (≈ 17.1 µg/mL) | MIC (Candida glabrata 20/I; 48 h): 500 µM (≈ 137 µg/mL) | MIC [3, 16]: > 500 µM | MIC [3, 17]: > 500 µM | IC50 [4, 18]: > 500 µM | IC50 [4, 19]: > 500 µM | IC50 (Absidia corymbifera 272; [20]): > 500 µM | IC50 (Absidia corymbifera 272; [21]): > 500 µM | IC50 [5, 22]: 62.5 µM | IC50 [5, 23]: 62.5 µM | IC50 [6]: > 25 µM

Oc1ccc2cccnc2c1C=NNC(=S)Nc1ccccc1 [Compound 4l]
log k [1]: 0.6748 | MIC ([2]; ATCC44859, 24 h): 31.2 µM (≈ 10.1 µg/mL) | MIC ([2]; ATCC44859, 48 h): 62.5 µM (≈ 20.1 µg/mL) | MIC (Candida tropicalis 156; Candida tropicalis, 156, 24 h): 125 µM (≈ 40.3 µg/mL) | MIC (Candida tropicalis 156; Candida tropicalis, 156, 48 h): 125 µM (≈ 40.3 µg/mL) | MIC (Candida krusei ATCC 6258; ATCC6258, 24 h): 31.2 µM (≈ 10.1 µg/mL) | MIC (Candida krusei ATCC 6258; ATCC6258, 48 h): 125 µM (≈ 40.3 µg/mL) | MIC (Candida glabrata 20/I; 24 h): 15.6 µM (≈ 5.04 µg/mL) | MIC (Candida glabrata 20/I; 48 h): 31.2 µM (≈ 10.1 µg/mL) | MIC [3, 16]: 15.6 µM (≈ 5.04 µg/mL) | MIC [3, 17]: 125 µM (≈ 40.3 µg/mL) | IC50 [4, 18]: 125 µM | IC50 [4, 19]: 125 µM | IC50 (Absidia corymbifera 272; [20]): 15.6 µM | IC50 (Absidia corymbifera 272; [21]): 62.5 µM | IC50 [5, 22]: 15.6 µM | IC50 [5, 23]: 15.6 µM | IC50 [6]: 16.3 ± 1.69 µM
